Assay results published in PubChem BioAssay AID330 (DTP/NCI, 2004).
“And” between values parts separate entries of the source, which are not always exact repeats. Identical values can stand only once. Inconclusive results and toxic doses are left out.

Tested on: P388 leukemia ip, CD2F1 mice, survival T/C
Assay: NCI In Vivo Anticancer Drug Screen. Data for tumor model P388 Leukemia (intraperitoneal) in CD2F1 (CDF1) mice
Settings: endpoint: median survival time, higher = longer survival
How it was run: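 Mice carrying the transplanted tumor received test compound or vehicle. Survival was recorded in each group, and the value is the treated-group measurement divided by that of the vehicle-treated control group.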

[1] = dose: 12.5 mg/kg/injection, schedule: Q01DX005 (ip), vehicle: saline with Tween-80
[2] = dose: 25.0 mg/kg/injection, schedule: Q01DX005 (ip), vehicle: saline with Tween-80
[3] = dose: 50.0 mg/kg/injection, schedule: Q01DX005 (ip), vehicle: saline with Tween-80
[4] = dose: 50.0 mg/kg/injection, schedule: Q01DX009 (ip), vehicle: saline with Tween-80
[5] = dose: 6.25 mg/kg/injection, schedule: Q01DX009 (ip), vehicle: saline with Tween-80
[6] = dose: 12.5 mg/kg/injection, schedule: Q01DX009 (ip), vehicle: saline with Tween-80
[7] = dose: 25.0 mg/kg/injection, schedule: Q01DX009 (ip), vehicle: saline with Tween-80
[8] = dose: 200.0 mg/kg/injection, schedule: Q01DX009 (ip), vehicle: Klucel (hydroxypropylcellulose) (HPC)
[9] = dose: 50.0 mg/kg/injection, schedule: Q01DX009 (ip), vehicle: Klucel (hydroxypropylcellulose) (HPC)
[10] = dose: 100.0 mg/kg/injection, schedule: Q01DX009 (ip), vehicle: Klucel (hydroxypropylcellulose) (HPC)

Cc1cccc2sc(NC(=O)Nc3cccc(F)c3)nc12
T/C [1]: 93 % of control and 94 % of control
T/C [2]: 100 % of control and 96 % of control
T/C [3]: 94 % of control and 96 % of control
T/C (dose: 100.0 mg/kg/injection, schedule: Q01DX005 (ip), vehicle: saline with Tween-80): 104 % of control and 89 % of control

COc1ccc2c(c1)CC[C@@H]1[C@@H]2CC[C@]2(C)C(=O)/C(=C/C=C/N(C)C)C[C@@H]12
T/C [1]: 90 % of control
T/C [2]: 91 % of control
T/C [3]: 87 % of control and 89 % of control

CCOC(=O)c1ccc(Nc2sc(C(=O)c3ccc(Br)cc3)c(N)c2C#N)cc1
T/C [4]: 100 % of control
T/C (dose: 100.0 mg/kg/injection, schedule: Q01DX009 (ip), vehicle: saline with Tween-80): 108 % of control
T/C (dose: 200.0 mg/kg/injection, schedule: Q01DX009 (ip), vehicle: saline with Tween-80): 90 % of control
T/C (dose: 400.0 mg/kg/injection, schedule: Q01DX009 (ip), vehicle: saline with Tween-80): 86 % of control

CCC(c1ccc(OC)cc1)C(NCC(=O)NNC(=S)NCc1ccccc1)c1ccc(OC)cc1 (configuration not stated)
T/C (dose: 100.0 mg/kg/injection, schedule: Q01DX001 (ip), vehicle: saline with Tween-80): 92 % of control
T/C (dose: 200.0 mg/kg/injection, schedule: Q01DX001 (ip), vehicle: saline with Tween-80): 99 % of control
T/C (dose: 400.0 mg/kg/injection, schedule: Q01DX001 (ip), vehicle: saline with Tween-80): 99 % of control

Cn1c(=O)c2[nH]c(C3CCCC3)nc2n(C)c1=O
T/C (dose: 3.13 mg/kg/injection, schedule: Q01DX009 (ip), vehicle: saline with Tween-80): 94 % of control
T/C [5]: 103 % of control
T/C [6]: 103 % of control
T/C [7]: 92 % of control

C/C(=C\C(=O)c1cccc(F)c1)N1CCN(c2cccc(C(F)(F)F)c2)CC1
T/C (dose: 50.0 mg/kg/injection, schedule: Q01DX005 (ip), vehicle: Klucel (hydroxypropylcellulose) (HPC)): 93 % of control
T/C (dose: 100.0 mg/kg/injection, schedule: Q01DX005 (ip), vehicle: Klucel (hydroxypropylcellulose) (HPC)): 94 % of control

Cc1c(O)c2c(c(O)c1Cc1ccc(C#N)cc1)C(=O)c1ccccc1C2=O
T/C [5]: 94 % of control
T/C [6]: 91 % of control
T/C [7]: 90 % of control
T/C [4]: 91 % of control
T/C [8]: 89 % of control

Cc1ccc(S(=O)(=O)Sc2nnnn2C)cc1
T/C [9]: 106 % of control
T/C [10]: 97 % of control

CCCNC1=C(C)C(=O)C2=C(C1=O)[C@H](COC(N)=O)[C@]1(OC)[C@@H]3N[C@@H]3CN21
T/C (dose: 6.25 mg/kg/injection, schedule: Q01DX009 (ip), vehicle: saline sonified): 86 % of control
T/C (dose: 12.5 mg/kg/injection, schedule: Q04DX003 (ip), vehicle: saline with Tween-80): 86 % of control

CN(C)C(=O)NC1(N(C)C)CC1
T/C (dose: 25.0 mg/kg/injection, schedule: Q01DX009 (ip), vehicle: saline): 104 % of control
T/C (dose: 50.0 mg/kg/injection, schedule: Q01DX009 (ip), vehicle: saline): 100 % of control
T/C (dose: 100.0 mg/kg/injection, schedule: Q01DX009 (ip), vehicle: saline): 97 % of control

Cc1c(-c2ccc(-c3ccccc3F)cc2)nc2ccc(F)cc2c1C(=O)O
T/C (dose: 5.62 mg/kg/injection, schedule: Q01DX005 (ip), vehicle: water): 120 % of control
T/C (dose: 11.25 mg/kg/injection, schedule: Q01DX005 (ip), vehicle: water): 121 % of control
T/C (dose: 45.0 mg/kg/injection, schedule: Q01DX005 (ip), vehicle: water): 157 % of control
T/C (dose: 90.0 mg/kg/injection, schedule: Q01DX005 (ip), vehicle: water): 158 % of control

O=C(Nc1cc(NC(=O)n2nnc3ccccc32)c(Br)cc1Br)n1nnc2ccccc21
T/C [9]: 91 % of control
T/C [10]: 89 % of control
T/C [8]: 97 % of control

CN=c1ccc2nc3ccc(N)cc3sc-2c1
T/C (dose: 12.5 mg/kg/injection, schedule: Q01DX005 (ip), vehicle: saline): 105 % of control
T/C (dose: 25.0 mg/kg/injection, schedule: Q01DX005 (ip), vehicle: saline): 107 % of control
T/C (dose: 50.0 mg/kg/injection, schedule: Q01DX005 (ip), vehicle: saline): 103 % of control
